Measurements reported in patent US20100022584A1, “Modulation of Glutamine Synthetase Activity” (priority 2006, published 2010).

Target: T1, glutamine synthetase mutant S52A S53A Y397V (Escherichia coli, UniProt P0A9C5, S53A/S54A/Y398V)
T1 construct: made in house; host or cells: E. coli YMC11 (glutamine synthetase auxotroph), pBluescript II SK+
T1 sequence (P0A9C5 2-469 S53A/S54A/Y398V limits assumed): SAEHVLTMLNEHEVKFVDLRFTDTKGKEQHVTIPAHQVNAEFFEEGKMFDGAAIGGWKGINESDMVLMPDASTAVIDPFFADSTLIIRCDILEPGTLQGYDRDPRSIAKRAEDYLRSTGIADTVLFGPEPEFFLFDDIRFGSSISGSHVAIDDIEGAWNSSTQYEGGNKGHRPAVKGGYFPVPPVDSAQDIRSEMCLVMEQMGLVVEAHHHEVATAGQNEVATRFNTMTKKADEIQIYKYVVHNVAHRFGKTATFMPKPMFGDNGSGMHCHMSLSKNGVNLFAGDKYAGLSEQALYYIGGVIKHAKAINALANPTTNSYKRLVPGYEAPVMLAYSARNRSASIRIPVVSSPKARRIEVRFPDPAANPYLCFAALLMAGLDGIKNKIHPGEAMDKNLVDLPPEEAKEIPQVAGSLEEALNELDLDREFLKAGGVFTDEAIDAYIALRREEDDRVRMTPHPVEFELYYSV
Test: HPLC forward-reaction glutamine synthetase assay with serine protease inhibitors
Format: biochemical, E. coli
Conditions: 1 mM inhibitor; for inhibition of the enzyme (in words): HPLC assays; for % Reduction in ADP-based Specific Activity / % Reduction in Glutamine-based Specific Activity / % Conversion: Mn assay; for % Reduction in ADP-based Specific Activity / % Reduction in Glutamine-based Specific Activity: 60 min pre-incubation, vs no-inhibitor control; for % Reduction in Glutamine-based Specific Activity: positive = activity increased; for % Conversion: glutamine-based divided by ADP-based specific activity

| Compound | inhibition of the enzyme (in words) | % Reduction in ADP-based Specific Activity [%] | % Reduction in Glutamine-based Specific Activity [%] | % Conversion [%] |
| --- | --- | --- | --- | --- |
| O=S(=O)(F)Cc1ccccc1 [PMSF] | did not significantly inhibit | −4.83 | −18.20 | 62 |
| NCCc1ccc(S(=O)(=O)F)cc1 [AEBSF] | appeared to cause inhibition | −5.20 | −1.65 | 75 |
